Test results from patent US8367695B2, “Condensed tetrahydroquinoline derivative and use thereof for medical purposes” (Mitsubishi Tanabe Pharma Corporation, priority 2007, dated 2013).

What follows are compounds tested against T1, human recombinant progesterone receptor-B (PRB) (Homo sapiens, UniProt P06401) (assay: Radioactive ligand binding test, PRB cytosol, [3H]-Prog). Details: [3H]-Prog about 5 nM, PRB cytosol, 4° C.; Cheng-Prusoff, Kd about 3.5 nM; read-out: PR (Ki: nM).
T1 construct: purchased Invitrogen (Carlsbad, Calif.)
T1 sequence (P06401 1-933): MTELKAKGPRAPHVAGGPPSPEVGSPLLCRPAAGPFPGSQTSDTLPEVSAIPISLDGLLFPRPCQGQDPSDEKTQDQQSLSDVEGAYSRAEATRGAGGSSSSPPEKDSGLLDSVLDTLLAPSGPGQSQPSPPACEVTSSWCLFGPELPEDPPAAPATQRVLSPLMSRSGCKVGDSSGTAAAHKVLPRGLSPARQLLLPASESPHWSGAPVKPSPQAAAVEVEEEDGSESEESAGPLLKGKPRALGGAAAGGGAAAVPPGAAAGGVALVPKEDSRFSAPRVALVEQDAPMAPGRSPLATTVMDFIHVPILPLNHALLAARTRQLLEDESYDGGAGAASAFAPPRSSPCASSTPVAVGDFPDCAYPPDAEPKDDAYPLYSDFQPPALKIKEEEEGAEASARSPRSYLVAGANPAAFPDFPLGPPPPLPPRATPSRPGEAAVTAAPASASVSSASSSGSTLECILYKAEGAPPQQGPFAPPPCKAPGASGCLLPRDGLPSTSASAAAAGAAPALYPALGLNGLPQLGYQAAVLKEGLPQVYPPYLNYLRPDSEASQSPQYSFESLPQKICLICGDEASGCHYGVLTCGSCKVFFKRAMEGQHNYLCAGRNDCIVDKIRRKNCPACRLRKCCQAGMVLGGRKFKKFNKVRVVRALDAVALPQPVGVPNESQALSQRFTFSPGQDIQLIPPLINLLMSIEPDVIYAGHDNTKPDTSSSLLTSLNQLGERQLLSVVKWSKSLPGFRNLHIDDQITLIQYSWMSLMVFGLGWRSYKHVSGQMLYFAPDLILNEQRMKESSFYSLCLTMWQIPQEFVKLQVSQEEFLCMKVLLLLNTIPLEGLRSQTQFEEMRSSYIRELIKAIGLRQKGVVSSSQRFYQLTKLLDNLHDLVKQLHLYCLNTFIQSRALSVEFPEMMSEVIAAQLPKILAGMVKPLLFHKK
Source text: Radioactive Ligand Binding Test Using Cytosols of Human Glucocorticoids Receptor, Progesterone Receptor and Mineralocorticoid Receptor
The procedures described in Neuroimmunomodulation (1994, 1, p. 66-73) and Invest. Opthalmol. Vis. Sci. (1996, 37, p. 805-813) were modified and used. In brief, cytosol preparations of human recombinant glucocorticoids receptor (GR) and human recombinant progesterone receptor-B (PRB) were purchased from Invitrogen (Carlsbad, Calif.), and a cytosol preparation of human recombinant mineralocorticoid receptor (MR) was prepared by our company (Yokohama, JP). MR cDNA was cloned into a baculovirus expression vector and expressed in insect cell Sf9. The procedures described in J. Biol. Chem. (1991, 266, p. 18072-18081), Proc. Natl. Acad. Sci. USA (1991, 88, p. 10681-10685) and Bac-to-Bac (registered trade mark) Baculovirus Expression Systems technical manual (Invitrogen) were partly modified and used as the procedures for MR gene cloning up to preparation of recombinant receptor cytosol. [^3H]-Dexamethasone (Dex, specific activity 91.0 Ci/mmol) was purchased from GE Healthcare (Buckinghamshire, UK), and [^3H]-progesterone (Prog, specific activity 103 Ci/mmol) and [3H]-aldosterone (Ald, specific activity 87.9 Ci/mmol) were each purchased from PerkinElmer (Boston, Mass.). Polypropylene round-bottomed 96 well plate was obtained from ABgene (Epsom, UK). Dimethyl Sulfoxide (DMSO) and hydrochloric acid were obtained from Kanto Chemical (TOKYO, JP). Trizma Base (Tris), Bovine Serum Albumin (BSA) and Sodium tungstate dihydrate were obtained from Sigma Chemicals (St. Louis, Mo.). Dithiothreitol (DTT) and Dextran 70 were obtained from GE Healthcare (Buckinghamshire, UK). Glycerol was obtained from Junsei Chemical (TOKYO, JP). Norit® “SX-II” was obtained from Wako Pure Chemical Industries, Ltd. (Osaka, JP). MeltiLex™, A, Printed Filtermat A and Sample Bag were obtained from PerkinElmer (Boston, Mass.).
As a buffer for GR binding assay, 25 mM Tris-HCl (4° C., pH 7.4)/1 mM EDTA·2Na/1 mM DTT/0.1% BSA was prepared and used. As buffers for PRB and MR binding assay, 10 mM Tris-HCl (4° C., pH 7.4)/1 mM DTT/0.1% BSA/10% glycerol and 20 mM Tris-HCl (4° C., pH 7.4)/1 mM EDTA·2Na/10% glycerol/20 mM sodium tungstate were respectively prepared and used. As dextran-coated charcoal (DCC) for B/F separation, 0.75% Dextran 70/0.75% Norit® SX-II/10 mM Tris-HCl (4° C., pH 7.4) was prepared and used.
Compound storage solutions (5-20 mM) were prepared using DMSO. The storage solutions were diluted with DMSO to 0.1 mM (for GR) and 0.3 mM (for PRB and MR), and further diluted 20-fold with distilled water to give solutions. Then, the preparations were diluted to each concentration with 5% DMSO solution. 1% DMSO was present at the time of the binding assay.
In the case of PRB binding assay, [^3H]-Prog (about 5 nM), PRB cytosol (concentration of function receptor: about 4 pmol/mL), a test compound and a binding buffer were mixed in a total volume of 50 μL, and the mixture was stood at 4° C. for 30 min or longer. A specific binding was defined to be the difference in the [^3H]-Prog binding between the presence and the absence of 1 μM unlabeled Prog.
After the reaction, 50 μL of DCC was added to each well and blended. Thereafter, the mixture was stood at 4° C. for 10 min. The plate was applied to high-speed cooling centrifuge under the conditions of 4° C., 2000 rpm, 5 min to perform B/F separation. A given amount of the supernatant was recovered, which was spotted on Filtermat A of 96 well format (PerkinElmer) and rapidly dried at a high temperature. Then, solid scintillator MeltiLex A (PerkinElmer) was melted on Filtermat A. The mixture was placed in a Sample Bag (PerkinElmer), and the level of radioactivity was measured by plate reader 1450 Micro Beta TRILUX (PerkinElmer).
Measurement of Inhibition Constant (Ki)

| SMILES | Ki [nM] |
| --- | --- |
| Cc1onc(CO)c1-c1cc2c(c3ccoc13)NC(C)(C)C(=O)C2(C)C [Example 94, 6-(3-hydroxymethyl-5-methylisoxazol-4-yl)-2,2,4,4-tetramethyl-1,2,3,4-tetrahydro-furo[2,3-h]quinolin-3-one] | > 1250 |
| CC1(C)Nc2c(cc(-c3cccc4nccn34)c3occc23)C(C)(C)C1=O [Example 98, 6-(imidazo[1,2-a]pyridin-5-yl)-2,2,4,4-tetramethyl-1,2,3,4-tetrahydro-furo[2,3-h]quinolin-3-one] | 1050 |
| CC1(C)Nc2c(cc(-c3cncc4nccn34)c3occc23)C(C)(C)C1=O [Example 100, 6-(imidazo[1,2-a]pyrazin-5-yl)-2,2,4,4-tetramethyl-1,2,3,4-tetrahydro-furo[2,3-h]quinolin-3-one] | > 1250 |
| CC1(C)Nc2c(cc(-c3cccc4ncccc34)c3occc23)C(C)(C)C1=O [Example 101, 2,2,4,4-tetramethyl-6-(quinolin-5-yl)-1,2,3,4-tetrahydro-furo [2,3-h]quinolin-3-one] | 1220 |
| CC1(C)Nc2c(cc(-c3ccnc4ncccc34)c3occc23)C(C)(C)C1=O [Example 102, 2,2,4,4-tetramethyl-6-([1,8]naphthyridin-4-yl)-1,2,3,4-tetrahydro-furo[2,3-h]quinolin-3-one] | > 1250 |
| Cc1noc(C)c1-c1cc2c(c3c1C(=O)CC3)NC(C)(C)C(=O)C2(C)C [Example 104, 6-(3,5-dimethylisoxazol-4-yl)-2,2,4,4-tetramethyl-2,3,4,7,8,9-hexahydro-1H-cyclopenta[h]quinoline-3,7-dione] | > 1250 |
